Our source for the Ki values is US7332501B2, “Indol-3-yl-carbonyl-spiro-piperidine derivatives as V1a receptor antagonists” (Hoffmann-La Roche Inc., priority 2005, dated 2008).

In the experiment the target is T1, human V1a receptor (Homo sapiens, UniProt P37288).
T1 construct: expressed in transfected cells; host or cells: HEK293 cells, transiently transfected; cell membranes
T1 sequence (P37288 whole entry): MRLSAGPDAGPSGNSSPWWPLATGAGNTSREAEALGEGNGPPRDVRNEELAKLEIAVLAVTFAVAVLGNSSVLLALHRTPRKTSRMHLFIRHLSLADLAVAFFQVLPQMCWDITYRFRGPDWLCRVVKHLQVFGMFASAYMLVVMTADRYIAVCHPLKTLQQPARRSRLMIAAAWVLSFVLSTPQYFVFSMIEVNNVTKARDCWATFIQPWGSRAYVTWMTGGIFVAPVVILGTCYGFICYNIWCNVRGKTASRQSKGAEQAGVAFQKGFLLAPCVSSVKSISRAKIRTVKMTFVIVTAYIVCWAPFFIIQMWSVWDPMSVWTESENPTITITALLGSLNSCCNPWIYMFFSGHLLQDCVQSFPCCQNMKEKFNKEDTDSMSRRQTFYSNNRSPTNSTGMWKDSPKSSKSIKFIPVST
The experiment in a line: human V1a receptor binding (3H-Vasopressin SPA, HEK293 membranes). The note with it: displacement of 4 nM 3H-Vasopressin, membranes of HEK293 cells transiently transfected with human V1a receptor; Ki from IC50 by Cheng-Prussoff. On the procedure: The human V1a receptor was cloned by RT-PCR from total human liver RNA. The coding sequence was subcloned in an expression vector after sequencing to confirm the identity of the amplified sequence. […] Cell membranes were prepared from HEK293 cells transiently transfected with the expression vector and grown in 20 liter fermenters with the following protocol.
50 g cells are resuspended in 30 ml freshly prepared ice cold Lysis buffer (50 mM HEPES, 1 mM EDTA, 10 mM MgCl2 adjusted to pH=7.4+complete cocktail of protease inhibitor (Roche Diagnostics)). The cells are homogenized with Polytron for 1 min and sonicated on ice for 2×2 minutes at 80% intensity (Vibracell sonicator). The preparation is centrifuged 20 min at 500 g at 4° C., the pellet is discarded and the supernatant centrifuged 1 hour at 43,000 g at 4° C. (19,000 rpm). The pellet is resuspended in 12.5 ml Lysis buffer+12.5 ml Sucrose 20% and homogenized using a Polytron for 1-2 min. The protein concentration is determined by the Bradford method and aliquots are stored at −80° C. until use. For binding studies 60 mg Yttrium silicate SPA beads (Amersham) are mixed with an aliquot of membrane in binding buffer (50 mM Tris, 120 mM NaCl, 5 mM KCl, 2 mM CaCl2, 10 mM MgCl2) for 15 minutes with mixing. 50 ul of bead/membrane mixture is then added to each well of a 96 well plate, followed by 50 ul of 4 nM 3H-Vasopressin (American Radiolabeled Chemicals). For total binding measurement 100 ul of binding buffer are added to the respective wells, for non-specific binding 100 ul of […] cold vasopressin and for compound testing 100 ul of a serial dilution of each compound in 2% DMSO. The plate is incubated 1 h at room temperature, centrifuged 1 min at 1000 g and counted on a Packard Top-Count. Non-specific binding counts are subtracted from each well and data is normalized to the maximum specific binding set at 100%. To calculate an IC 50 the curve is fitted using a non-linear regression model (XLfit), and the Ki is calculated using the Cheng-Prussoff equation.
In turn, `Cc1c(C(=O)N2CCC3(CC2)OCc2ccccc23)c2ccccc2n1Cc1ccccc1` [Example 39, 1′-[(1-benzyl-2-methyl-1H-indol-3-yl)carbonyl]-3H-spiro[2-benzofuran-1,4′-piperidine]] showed a Ki of 1.8 nM. `Cc1c(C(=O)N2CCC3(CC2)OCc2ccc(Cl)cc23)c2ccccc2n1Cc1ccccc1` [Example 40, 1′-[(1-benzyl-2-methyl-1H-indol-3-yl)carbonyl]-6-chloro-3H-spiro[2-benzofuran-1,4′-piperidine]] showed a Ki of 2.9 nM. Compound `Cc1[nH]c2ccccc2c1C(=O)N1CCC2(CC1)OCc1ccccc12` [Example 43, 1′-[(2-methyl-1H-indol-3-yl)carbonyl]-3H-spiro[2-benzofuran-1,4′-piperidine]] had a Ki of 11 nM. Compound `Cc1c(C(=O)N2CCC3(CC2)OCc2ccccc23)c2ccccc2n1C(=O)c1ccccc1` [Example 44, 1′-[(1-benzoyl-2-methyl-1H-indol-3-yl)carbonyl]-3H-spiro[2-benzofuran-1,4′-piperidine]] registered a Ki of 11 nM. `Cc1c(C(=O)N2CCC3(CC2)OCc2ccccc23)c2ccccc2n1S(=O)(=O)c1ccccc1` [Example 45, 1′-{[2-methyl-1-(phenylsulfonyl)-1H-indol-3-yl]carbonyl}-3H-spiro[2-benzofuran-1,4′-piperidine]] came in with a Ki of 9.5 nM. For the compound `Cc1c(C(=O)N2CCC3(CC2)OCc2ccccc23)c2ccccc2n1CC1CCCCC1` [Example 46, 1′-{[1-(cyclohexylmethyl)-2-methyl-1H-indol-3-yl]carbonyl}-3H-spiro[2-benzofuran-1,4′-piperidine]], affinity was put at a Ki of 0.8 nM. Take `Cc1c(C(=O)N2CCC3(CC2)OCc2ccccc23)c2ccccc2n1Cc1cccc(F)c1` [Example 47, 1′-{[1-(3-fluorobenzyl)-2-methyl-1H-indol-3-yl]carbonyl}-3H-spiro[2-benzofuran-1,4′-piperidine]]: the Ki was 0.5 nM. Against the preceding compound, the Ki is about 1.6-fold lower. `Cc1c(C(=O)N2CCC3(CC2)OCc2ccccc23)c2ccccc2n1Cc1ccccc1OC(F)(F)F` [Example 48, 1′-({2-methyl-1-[2-(trifluoromethoxy)benzyl]-1H-indol-3-yl}carbonyl)-3H-spiro[2-benzofuran-1,4′-piperidine]] displayed a Ki of 2.6 nM. In the case of `Cc1cc(C)cc(Cn2c(C)c(C(=O)N3CCC4(CC3)OCc3ccccc34)c3ccccc32)c1` [Example 49, 1′-{[1-(3,5-dimethylbenzyl)-2-methyl-1H-indol-3-yl]carbonyl}-3H-spiro[2-benzofuran-1,4′-piperidine]], the Ki is 2.4 nM. On to `COC(=O)c1ccc(Cn2c(C)c(C(=O)N3CCC4(CC3)OCc3ccccc34)c3ccccc32)cc1` [Example 50, methyl 4-{[2-methyl-3-(1′H,3H-spiro[2-benzofuran-1,4′-piperidin]-1′-ylcarbonyl)-1H-indol-1-yl]methyl}benzoate], for which the Ki worked out at 10.6 nM. Compared with the last compound, the Ki is about 4.4-fold higher. `Cc1c(C(=O)N2CCC3(CC2)OCc2ccccc23)c2ccccc2n1Cc1ccc(C#N)cc1` [Example 51, 4-{[2-methyl-3-(1′H,3H-spiro[2-benzofuran-1,4′-piperidin]-1′-ylcarbonyl)-1H-indol-1-yl]methyl}benzonitrile] yielded a Ki of 5.9 nM. Against the preceding compound, the Ki is about 1.8-fold lower. Under `Cc1c(C(=O)N2CCC3(CC2)OCc2ccccc23)c2ccccc2n1Cc1cc(F)cc(F)c1` [Example 52] stands 2.1 nM.

As for `Cc1c(C(=O)N2CCC3(CC2)OCc2ccccc23)c2ccccc2n1Cc1ccccc1Cl` [Example 53, 1′-{[1-(2-chlorobenzyl)-2-methyl-1H-indol-3-yl]carbonyl}-3H-spiro[2-benzofuran-1,4′-piperidine]], the affinity corresponds to a Ki of 1.7 nM. The Ki values of the last two compounds are within 1.5-fold of each other. Consider `COc1ccccc1Cn1c(C)c(C(=O)N2CCC3(CC2)OCc2ccccc23)c2ccccc21` [Example 54, 1′-{[1-(2-methoxybenzyl)-2-methyl-1H-indol-3-yl]carbonyl}-3H-spiro[2-benzofuran-1,4′-piperidine]], for which the affinity, expressed as Ki, was 2.5 nM.
